Article PMC11969024, “Development of chemokine network inhibitors using combinatorial saturation mutagenesis” (Communications Biology, 2025)

Experiments:
[1] = tested on: activated CD8+T-cells (ATC); assay: Activated T-cell (ATC) migration induced by individual chemokines, inhibition by peptide; format: cell-based, human; conditions: for inhibition of CCL19, CCL21, CXCL9, and CXCL11-induced migration of ATCs compared to parental HD2: peptide 10 uM, chemokines at EC80, Dunnett's test
Protocol: Cell lines were confirmed mycoplasma free by monthly testing using a MycoAlert^TM kit (LT07-118, Lonza) following the manufacturer’s instructions. THP1 cells: THP1 cells (ECACC 88081201, a human monocyte leukemia cell line[51]) were obtained from ECACC and were cultured in T175 flasks at 0.3-1 × 10^6 cells/mL in Roswell Park Memorial Institute (RPMI) 1640 medium (R0883, Sigma) with 10% FBS (F9665, Sigma) and 5mM L-glutamine (G7513, Sigma), 37 °C, 5% CO2. J:CXCR1 cells: The J:CXCR1 cell line was cultured in the same manner as THP1 cells at 0.15-1 × 10^6 cells per mL[37]. Activated T-cells: T-cells were isolated, activated and expanded as follows. Briefly, density gradient centrifugation using Lymphoprep^TM density gradient medium (07801, […] Technologies) and a SepMate^TM isolation tube (85450, […] Technologies) was used to isolate peripheral blood mononuclear cells from human leukocyte cones. Two rounds of purification using a human CD8 + T-cell isolation kit (480011, BioLegend) were used to isolate CD8 + T-cells from peripheral blood mononuclear cells. Activation of CD8 + T-cells was performed in ImmunoCult^TM-XF T-cell expansion medium (10982, […] Technologies) with an anti-CD3/anti-CD28 T-cell activator at 25 μl/ml (10991, […] Technologies), supplemented with 10 ng/ml recombinant human IL-2 (200-02, PeproTech) with 1% penicillin/streptomycin. T-cells were passaged every 2–3 days in TexMACS medium (130-097-196, Miltenyi Biotec), supplemented with 10 ng/ml human IL-2 (200-05-250, Peprotech) and incubated at 37 °C in 5% CO2. CD8 + T-cells were frozen at day 10-13 after initial activation, at 20×10^6 cell/ml in TexMACS medium supplemented with 10% DMSO (D2650, Sigma) in liquid nitrogen. Activated CD8^+ T-cells were recovered in TexMACs medium at 0.3 × 10^6 cell/ml and incubated at 37 °C in 5% CO2, 24 h prior to use. For buffy coat experiments a mixture of primary human monocytes, granulocytes and lymphocytes was isolated from human buffy coat. Briefly, RBCs were sedimented in HetaSep (07806, […] Technologies) with 1 mL of HetaSep per 5 mL of blood for 15 min at 37 °C. The buffy coat layer was collected from the top and washed in 50 ml MACS buffer (PBS (P4417, Sigma), 0.5% BSA (A7030, Sigma), 0.075% EDTA (E5134, Sigma), pH 7.2), by centrifugation at 2000 g for 10 min at room temperature. The pellet was resuspended in 10 mL of 1x RBC lysis solution (130-094-183, Miltenyi Biotec) and lysed for 10 min at room temperature. The cells were then washed in MACS buffer twice as above. The final pellet was resuspended in 1 mL of MACS buffer per 5 mL of initial blood volume and counted using cell size FSC-H/SSC-H parameters with gate settings previously defined by immunostaining (see below). The leukocytes were then resuspended in assay buffer for cell migration and used within 30 min of isolation.
Cell counts were determined using an ATTUNE NxT Flow Cytometer with Cytkick autosampler (ThermoFisher), based on cell size parameters FSC-H/SSC-H, with previously defined gate settings. FSC-H/SSC-H gate settings for primary white blood cells from buffy coats were determined using flow cytometry to establish the granulocyte, monocyte and lymphocyte populations (Supplementary Fig. 13). Briefly, cells were labelled with anti-CD3 (Miltenyi Biotec, 130-113-135) to identify the T cell population, anti-CD14 (Miltenyi Biotec, 130-110-578) to identify the monocyte population, and with anti-CD16 (Miltenyi Biotec, 130-113-951) to identify the granulocyte population. Negative control cells were labelled with anti-human IgG1 (Miltenyi Biotec, 130-113-434). All antibodies were allophycocyanin (APC) conjugated. 100,000 white blood cells were added to Eppendorf tubes and centrifuged at 300 g for 3 min. The supernatant was discarded, and the cells resuspended in 98 µL of MACS buffer (1× PBS, 2 mM EDTA and 0.5% BSA, sterile filtered). 2 µl of antibody was added to the cells. […]

[2] = tested on: J:CXCR1 cells (Jurkat cells stably transfected with CXCR1); assay: J:CXCR1 cell migration induced by CXCL6, inhibition by peptide; format: cell-based, human; conditions: peptide 10 uM; CXCL6 at EC80; Dunnett's test
Protocol: Cell lines were confirmed mycoplasma free by monthly testing using a MycoAlert^TM kit (LT07-118, Lonza) following the manufacturer’s instructions. THP1 cells: THP1 cells (ECACC 88081201, a human monocyte leukemia cell line[51]) were obtained from ECACC and were cultured in T175 flasks at 0.3-1 × 10^6 cells/mL in Roswell Park Memorial Institute (RPMI) 1640 medium (R0883, Sigma) with 10% FBS (F9665, Sigma) and 5mM L-glutamine (G7513, Sigma), 37 °C, 5% CO2. J:CXCR1 cells: The J:CXCR1 cell line was cultured in the same manner as THP1 cells at 0.15-1 × 10^6 cells per mL[37]. Activated T-cells: T-cells were isolated, activated and expanded as follows. Briefly, density gradient centrifugation using Lymphoprep^TM density gradient medium (07801, […] Technologies) and a SepMate^TM isolation tube (85450, […] Technologies) was used to isolate peripheral blood mononuclear cells from human leukocyte cones. Two rounds of purification using a human CD8 + T-cell isolation kit (480011, BioLegend) were used to isolate CD8 + T-cells from peripheral blood mononuclear cells. Activation of CD8 + T-cells was performed in ImmunoCult^TM-XF T-cell expansion medium (10982, […] Technologies) with an anti-CD3/anti-CD28 T-cell activator at 25 μl/ml (10991, […] Technologies), supplemented with 10 ng/ml recombinant human IL-2 (200-02, PeproTech) with 1% penicillin/streptomycin. […] The final pellet was resuspended in 1 mL of MACS buffer per 5 mL of initial blood volume and counted using cell size FSC-H/SSC-H parameters with gate settings previously defined by immunostaining (see below). […]
Cell counts were determined using an ATTUNE NxT Flow Cytometer with Cytkick autosampler (ThermoFisher), based on cell size parameters FSC-H/SSC-H, with previously defined gate settings. FSC-H/SSC-H gate settings for primary white blood cells from buffy coats were determined using flow cytometry to establish the granulocyte, monocyte and lymphocyte populations (Supplementary Fig. 13). […]

Sequence	inhibition of chemokines e.g. CCL19, CCL21 and CXCL11 ([1]; ATC migration, statement of the discussion)	inhibition of CCL19, CCL21, CXCL9, and CXCL11-induced migration of ATCs compared to parental HD2 [1]	inhibition of CXCL6-induced migration of J:CXCR1 cells compared to parental HD2 [2]
EEDDWTAYAPLTCYFT [HD2Y5W, HD2 point mutant]	de novo inhibition	significant improvement in inhibition	–
EEDDYWAYAPLTCYFT [HD2T6W, HD2 point mutant]	–	significant improvement in inhibition	significant improvement in inhibition
